One data set concerns the target T1, Hb (Homo sapiens, UniProt P69905).
T1 construct: as separate independent studies with non-sickle blood; from tissue; host or cells: non-sickling AA blood (red blood cells)
The experiment in a line: Occupancy/dose-dependent p50 shift in human non-sickle blood. Format: biochemical. Conditions: compared to Voxelotor at equivalent drug-Hb occupancy levels. The method, then:
Non-sickling human blood was incubated with test compounds at 0.25-2 mM concentrations at 37° C. for 1 hour in 96-well round bottom plates. At conclusion, RBCs were washed once with PBS, followed by lysis with deionized water. Approximately 100 μl aliquots of individual lysates were added to 3 mL of 0.1M potassium phosphate buffer, pH 7.0 in a cuvette and subjected to hemoximetry analysis using a Hemox™ Analyzer (TCS Scientific Corp.) as previously described. (Abdulmalik et al., 2020; Pagare et al., 2020) Change in p50 values (Δp50) was calculated by subtracting the p50 values of treated samples from the value of the control sample and expressing the difference as a percentage of control p50 values.

Data set [1] in a line: Single-dose oral pharmacokinetics in rats. Conditions: rat whole blood; single oral dose 100 mg/kg. Format: in vivo, male Sprague Dawley (SD) rats. The method, then:
Single-dose pharmacokinetics (PK) in male Sprague Dawley (SD) rats (n=4) were assessed for each compound, and the maximum or peak whole blood concentration and area under the curve are shown in Table 5.
Single doses of each compound were administered as oral suspensions by gavage in 0.5% carboxy methylcellulose at 100 mg/kg. Whole blood levels were collected for at least 72 hours after dose administration. Bioanalyses were performed with liquid chromatography-tandem mass spectrometry […].

A short description of data set [2]: 14-day repeat-dose oral pharmacokinetics in rats. The data set is classed as in vivo, male and female SD rats. As to conditions: oral 100 mg/kg for 14 days, Day 14. The method, then: (§1) Repeat oral doses of each compound were administered by oral gavage for 14 days to male and female SD rats (n=3). […] Steady state exposures for the final dosing interval on Day 14 were similar to total compound exposure from single-dose PK.
(§2) Repeat doses of each compound were administered once daily as oral suspensions by gavage in 0.5% carboxy methylcellulose for 14 days at 100 mg/kg. Whole blood was collected at 7 time-points for up to 24 hours during the final dosing interval on Day 14. Clinical observations, body weights, and food consumption were recorded throughout the 14 day study. Clinical chemistry and hematologic parameters were assessed, and histopathology was performed on organs after 14 days of exposure to study drug.

Data set [3] in a line: 14-day repeat-dose safety (clinical observations, histopathology) in rats. The data set is classed as in vivo, male and female SD rats. Conditions: for safety in non-clinical toxicology (in words): above anticipated therapeutic drug levels; for clinical or histopathologic changes after 14 days of exposure: rats, oral 100 mg/kg once daily for 14 days. The protocol:
as §1, §2

Data set [4] is described as follows: ADME / bioavailability assessment.
For data set [5], the system named is blood suspensions from humans with homozygous SCD. The experiment in a line: Oxygen-independent sickle inhibition under anoxia (100% nitrogen) in SS blood suspensions. The data set is classed as cell-based, human. The protocol: All compounds (Comp 1-13) and comparator molecules (VZHE-039, PP-14, INN-310, and Voxelotor) were evaluated following established procedures (Abdulmalik et al., 2005, 2020; Pagare et al., 2020). Blood samples from individual donors with homozygous SCD (obtained with informed consent) were diluted using Hemox buffer solution with the addition of glucose (10 mM) and BSA (0.2%) to adjust hematocrit of the blood suspensions to 20%, which standardizes the procedure to normalize the ratio of RBCs to drug, for assay consistency and reproducibility. Briefly, blood suspensions were incubated under room air in the presence of various concentrations of test compounds (0-2 mM) at 37° C. for 1 hour in 96-well round bottom plates. Subsequently, the suspensions were incubated with a hypoxic gas mixture (2.5% Oxygen gas/balance Nitrogen gas) at 37° C. for up to 2 hours prior to fixation with 2% glutaraldehyde solution without exposure to air. The fixated blood aliquots were evaluated by microscopic morphological analysis (image analysis on Image J software) to identify the proportion of sickled and non-sickled RBCs, and sickle inhibition calculated based on the % change from negative control (DMSO).
To establish oxygen-independent sickle inhibition, the incubation chamber was subsequently opened and exposed to room air for 15 minutes to ensure complete re-oxygenation and reversal of the sickled cells to normal round cells. Reversal was confirmed by microscopy. The incubation chamber was then closed, and the assay was repeated with incubation in 100% nitrogen gas for 1 hour (for screening), or up to 2.5 h (for time-course studies), with collection and fixation of blood aliquots at defined intervals. Aliquot samples were again subjected to microscopic morphological analysis of bright field images to identify the proportion of sickled and non-sickled cells, and sickle inhibition calculated.

The conditions of data set [6]: most patients with SCD; cited from earlier work.
[7] abbreviates: female rats, read-out: Cmax [μM] female.
Setting [8] is: male rats, read-out: Cmax [μM] male.

The structures appear in SMILES notation. Entries after “also recorded” stand apart in the source; their conditions may differ.

For orientation: Cmax means the peak of the concentration-time curve.

T1 sequence (P69905 2-142 limits assumed): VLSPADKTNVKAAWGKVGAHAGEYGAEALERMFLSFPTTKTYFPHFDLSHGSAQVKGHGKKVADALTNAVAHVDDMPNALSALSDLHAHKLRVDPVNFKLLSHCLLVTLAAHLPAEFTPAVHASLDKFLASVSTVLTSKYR
T1 sequence (P68871 2-147 partner limits assumed): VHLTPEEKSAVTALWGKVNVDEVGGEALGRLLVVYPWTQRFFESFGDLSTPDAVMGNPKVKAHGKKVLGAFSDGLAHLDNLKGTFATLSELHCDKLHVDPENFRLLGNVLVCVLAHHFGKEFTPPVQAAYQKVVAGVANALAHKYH

For the compound `O=Cc1c(O)cccc1OCc1ncccc1F` [Comp 5, 2-((3-fluoropyridin-2-yl)methoxy)-6-hydroxybenzaldehyde], the “changes in p50 of Hb in human blood (in words)” value (“changes in p50 of Hb” for short) on Hb is “relatively weak changes in p50”. Besides, in data set [1], the “AUC0-∞ [μM*h]” value is 12,047 μM*h and the highest level (Cmax) was 348 µM. In addition, in data set [2] (female rats), the “AUC0-∞ [μM*h] female” value is 20,566 μM*h. In addition, the peak concentration (Cmax) in data set [2] (setting [7]) amounted to 993 µM. Besides, the “AUC0-∞ [μM*h] male” value in data set [2] (male rats) was 17,073 μM*h. The Cmax in data set [2] (setting [8]) stood at 854 µM. For the same compound, in data set [3], the “safety in non-clinical toxicology (in words)” value is recorded as “without hepatotoxicity” and the “clinical or histopathologic changes after 14 days of exposure” value (“clinical or histopathologic changes” for short) is “No clinical or histopathologic changes”. For the same compound, the “absorption, distribution, metabolism and elimination (ADME) properties (in words)” value (“absorption, distribution” for short) in data set [4] was “acceptable absorption, distribution, metabolism and elimination (ADME) properties without metabolic lability”.
`O=Cc1c(O)cccc1OCc1cccnc1` [Comp 1, 2-hydroxy-6-(pyridin-3-ylmethoxy)benzaldehyde]: the “polymer destabilizing effects / sickle inhibition in anoxia (in words)” value in data set [5] was “most potent polymer destabilizers discovered to date; also recorded: most potent and sustained polymer destabilizing effects observed to date”. The “changes in p50 of Hb” value at Hb is “relatively weak changes in p50”. In data set [1], the “AUC0-∞ [μM*h]” value was 17,415 μM*h and the Cmax worked out at 919 µM. Also, the “AUC0-∞ [μM*h] female” value in data set [2] (female rats) is listed as 8,085 μM*h. The maximum concentration (Cmax) in data set [2] (setting [7]) was determined as 534 µM. In addition, the “AUC0-∞ [μM*h] male” value in data set [2] (male rats) was 10,490 μM*h. The highest concentration (Cmax) in data set [2] (setting [8]) was 703 µM. Besides, in data set [3], the “safety in non-clinical toxicology (in words)” value is given as “without hepatotoxicity” and the “clinical or histopathologic changes” value is “No clinical or histopathologic changes”. In addition, the “absorption, distribution” value in data set [4] is “acceptable absorption, distribution, metabolism and elimination (ADME) properties without metabolic lability”.
On to `O=Cc1c(O)cccc1OCc1ccccn1` [Comp 2, 2-hydroxy-6-(pyridin-2-ylmethoxy)benzaldehyde], for which the “polymer destabilizing effects / sickle inhibition in anoxia (in words)” value in data set [5] is “most potent polymer destabilizers discovered to date; also recorded: most potent and sustained polymer destabilizing effects observed to date”. For the same compound, on Hb, the “changes in p50 of Hb” value is given as “relatively weak changes in p50”. In addition, in data set [1], the “AUC0-∞ [μM*h]” value is on record as 19,822 μM*h and the peak level (Cmax) was 958 µM. Further, in data set [2] (female rats), the “AUC0-∞ [μM*h] female” value is listed as 21,547 μM*h and the “Cmax (ng/ml) female” value is on record as 254,382 ng/ml. For the same compound, the Cmax in data set [2] (setting [7]) worked out at 1110 µM. Further, the “AUC0-∞ [μM*h] male” value in data set [2] (male rats) was 20,363 μM*h. The maximum concentration (Cmax) in data set [2] (setting [8]) came out at 1110 µM. For the same compound, in data set [3], the “safety in non-clinical toxicology (in words)” value was “without hepatotoxicity” and the “clinical or histopathologic changes” value was “No clinical or histopathologic changes”. Also, the “absorption, distribution” value in data set [4] is “acceptable absorption, distribution, metabolism and elimination (ADME) properties without metabolic lability”.
In the case of `O=Cc1c(O)cccc1OCc1cncc(F)c1` [Comp 4, 2-((5-fluoropyridin-3-yl)methoxy)-6-hydroxybenzaldehyde], in data set [1], the “AUC0-∞ [μM*h]” value is 3,360 μM*h and the maximum concentration (Cmax) was 242 µM.
Take `COc1ccc(OCc2ccccn2)c(C=O)c1` [INN-310, reference compound]: the “polymer destabilizing effects / sickle inhibition in anoxia (in words)” value in data set [5] is listed as “only weak potency in anoxia”.
As for `CC(C)n1nccc1-c1ncccc1COc1cccc(O)c1C=O` [Voxelotor, reference compound], the “polymer destabilizing effects / sickle inhibition in anoxia (in words)” value in data set [5] was “did not demonstrate any sickle inhibition”. Further, the “AUC0-∞ [μM*h] female” value in data set [2] (female rats) was 7,617 μM*h. For the same compound, the Cmax was found to be 548 µM in data set [2] (setting [7]) and 422 µM in data set [2] (setting [8]). For the same compound, the “AUC0-∞ [μM*h] male” value in data set [2] (male rats) is 6,760 μM*h. The “increase in Hb concentrations” value in data set [6] is on record as “at least 1 g/dl”.
For the compound `O=Cc1c(F)cc(F)cc1OCc1ccccn1` [Comp 9, 2,4-difluoro-6-(pyridin-2-ylmethoxy)benzaldehyde], the “polymer destabilizing effects / sickle inhibition in anoxia (in words)” value in data set [5] is listed as “completely negates the polymer destabilization effects”.
Consider `O=Cc1c(OCc2cccnc2)ccc(F)c1O` [Comp 12, 3-fluoro-2-hydroxy-6-(pyridin-3-ylmethoxy)benzaldehyde], for which the “polymer destabilizing effects / sickle inhibition in anoxia (in words)” value in data set [5] is “significantly reduced the potency of polymer inhibition”.
For `O=Cc1c(O)cccc1OCc1ccccc1` [Reference A, 2-(benzyloxy)-6-hydroxybenzaldehyde, reference compound], in data set [5], the “polymer destabilizing effects / sickle inhibition in anoxia (in words)” value is listed as “exhibits potent polymer destabilizing effects”. The “bioavailability (in words)” value in data set [4] is reported as “not bioavailable”.
As to `O=Cc1c(O)cccc1OCc1cncnc1` [Comp 10, 2-hydroxy-6-(pyrimidin-5-ylmethoxy)benzaldehyde], in data set [1], the “AUC0-∞ [μM*h]” value is given as 3,011 μM*h and the highest level (Cmax) was 157 µM.
Turning to `O=Cc1c(O)cccc1OCc1ncccc1Cl` [Comp 8, 2-((3-chloropyridin-2-yl)methoxy)-6-hydroxybenzaldehyde], in data set [1], the “AUC0-∞ [μM*h]” value is 1,022 μM*h and the peak concentration (Cmax) worked out at 76 µM.
As for `O=Cc1c(O)cccc1OCc1cccnc1F` [Comp 6, 2-((2-fluoropyridin-3-yl)methoxy)-6-hydroxybenzaldehyde], in data set [1], the “AUC0-∞” value is 728 µM·h and the concentration peaked (Cmax) at 49 µM.
As to `O=Cc1c(F)cc(F)cc1OCc1ncccc1F` [Comp 13, 2,4-difluoro-6-((3-fluoropyridin-2-yl)methoxy)benzaldehyde], the “polymer destabilizing effects / sickle inhibition in anoxia (in words)” value in data set [5] is “completely negates the polymer destabilization effects”.
On to `O=Cc1c(O)cccc1OCc1cccc(CO)n1` [VZHE-039, reference compound], for which, in data set [1], the “AUC0-∞ [μM*h]” value is listed as 8,782 μM*h. The peak concentration (Cmax) is 394 µM in data set [1], 894 µM in data set [2] (setting [7]) and 753 µM in data set [2] (setting [8]). Also, the “AUC0-∞ [μM*h] female” value in data set [2] (female rats) is listed as 12,188 μM*h. In data set [2] (male rats), the “AUC0-∞ [μM*h] male” value is 11,585 μM*h. Besides, the “clinical or histopathologic changes” value in data set [3] is “Both clinical and histopathologic changes in the liver, including hepatocyte necrosis”.
